The values that follow come from patent US20110059482A1, “Sampling Kit” (priority 2008, published 2011).

A short description of data set [1]: Storage stability / shelf life of antibiotics, tablet and Herogel components. It is filed as physicochemical. The conditions noted are these: in liquid form, at about 8° C. (refrigerator). The method, then: Background: Herogel is a selective growth medium comprising aztreonam and colistin to inhibit the growth of Enterobacteriaceae. Cefoxitin is added to the medium in order to inhibit the growth of MSSA (Methicillin Sensitive Staphylococcus Aureus). Cefoxitin has a short shelf life if it is added to the medium upon manufacturing of the medium and together with other antibiotics. Tests performed at Karolinska University Hospital Laboratory have shown that the activity of cefoxitin in liquid form is reduced after 14 days at about 8° C. (i.e. in a refrigerator) and that aztreonam and colistin if they are added to the growth medium are active for at least 4 months if stored at a temperature of about 8° C. (i.e. in a refrigerator). In order to prolong the shelf life of the Herogel, cefoxitin is incorporated in the tablet in Batch 1. The hypothesis is that the shelf life of the herogel will be prolonged if the tablet is added immediately after the sampling. The shelf life of the tablet is estimated to about 12 months in room temperature. The other components of the Herogel medium have a documented shelf life of at least 6 months upon storage in a refrigerator.

In another data set the test system is MSSA. The conditions noted are these: according to the referens group for questions related to antibiotic (RAF); cited from earlier work.

With `CO[C@@]1(NC(=O)Cc2cccs2)C(=O)N2C(C(=O)O)=C(COC(N)=O)CS[C@@H]21` [cefoxitin], the “storage time after which the activity is reduced” value in data set [1] turned out to be 14 days. Further, the “minimal inhibitory concentration (MIC) for MSSA” value in the data set on MSSA is 4 µg/mL.
